Paper PMC8196580, “Identification of Kaurane-Type Diterpenes as Inhibitors of Leishmania Pteridine Reductase I” (Molecules, 2021)
Read-outs that look alike come from different tables or passages of the source.

What was measured:
[1] = tested on: L. major; parameters: method as in ChEMBL; conditions: ref ChEMBL, cited from earlier work
[2] = tested on: L. major; experiment: ChEMBL dataset of pIC50 values against L. major used for the RF model (Table S1); type: cell-based, Leishmania major; further: call rule not given here
[3] = ChemBL structures with pIC50 values used for Random forest model construction (Table S1)
[4] = Active/Inactive class assigned to ChemBL structures for Random forest model construction (Table S1)
[5] = ChemBL structures with pIC50 values used for Random forest model construction, L. major
[6] = Active/Inactive class assigned to the ChEMBL pIC50 value for Random forest model construction, ref ChEMBL

SMILES	pIC50 Value [1, 3]	Outcome [2, 4]	pIC50 Value [1, 5]	Outcome [2, 6]
Cc1ccc(C(=O)/C=C/c2cc3cccc(C)c3nc2Cl)s1 [CHEMBL1940864]	5.73	Active		
Cc1cc(C(=O)/C=C/c2cc3cccc(C)c3nc2Cl)c(C)s1 [CHEMBL1940865]	5.67	Active		
Cc1cccc2cc(/C=C/C(=O)c3sccc3Cl)c(Cl)nc12 [CHEMBL1940866]	5.65	Active		
Cc1cccc2cc(/C=C/C(=O)c3ccc(Cl)s3)c(Cl)nc12 [CHEMBL1940867]	5.73	Active		
Cc1cccc2cc(/C=C/C(=O)c3cc(Cl)sc3Cl)c(Cl)nc12 [CHEMBL1940868]	5.65	Active		
Cc1cccc2cc(/C=C/C(=O)c3sccc3Br)c(Cl)nc12 [CHEMBL1940869]	5.63	Active		
Cc1cccc2cc(/C=C/C(=O)c3ccc(Br)s3)c(Cl)nc12 [CHEMBL1940870]	5.70	Active		
Cc1cccc2cc(/C=C/C(=O)c3ccc(I)s3)c(Cl)nc12 [CHEMBL1940871]	5.82	Active		
O=[N+]([O-])c1ccc2nc(-c3ccccc3Cl)[nH]c2c1 [CHEMBL1947235]	5.48	Active		
O=[N+]([O-])c1ccc(-c2nnc(NCc3cn(Cc4ccccc4)nn3)s2)o1 [CHEMBL1951522]			4.71	Inactive
O=[N+]([O-])c1ccc(-c2nnc(NCc3cn(Cc4ccccc4F)nn3)s2)o1 [CHEMBL1951523]			4.72	Inactive
O=[N+]([O-])c1ccc(-c2nnc(NCc3cn(Cc4ccc(F)cc4)nn3)s2)o1 [CHEMBL1951524]			4.67	Inactive
O=[N+]([O-])c1ccc(-c2nnc(NCc3cn(Cc4ccccc4Cl)nn3)s2)o1 [CHEMBL1951525]			4.72	Inactive
O=[N+]([O-])c1ccc(-c2nnc(NCc3cn(Cc4cccc(Cl)c4)nn3)s2)o1 [CHEMBL1951526]			3.97	Inactive
O=[N+]([O-])c1ccc(-c2nnc(NCc3cn(Cc4ccc(Cl)cc4)nn3)s2)o1 [CHEMBL1951527]			4.05	Inactive
Cc1ccccc1Cn1cc(CNc2nnc(-c3ccc([N+](=O)[O-])o3)s2)nn1 [CHEMBL1951528]			4.60	Inactive
Cc1cccc(Cn2cc(CNc3nnc(-c4ccc([N+](=O)[O-])o4)s3)nn2)c1 [CHEMBL1951529]			4.66	Inactive
Cc1ccc(Cn2cc(CNc3nnc(-c4ccc([N+](=O)[O-])o4)s3)nn2)cc1 [CHEMBL1951530]			4.91	Inactive
O=[N+]([O-])c1ccc(Cn2cc(CNc3nnc(-c4ccc([N+](=O)[O-])o4)s3)nn2)cc1 [CHEMBL1951531]			4.49	Inactive
O=[N+]([O-])c1ccc(-c2nnc(NCc3cn(Cc4c(F)cccc4Cl)nn3)s2)o1 [CHEMBL1951532]			4.76	Inactive
O=[N+]([O-])c1ccc(-c2nnc(NCc3cn(Cc4cccc(Cl)c4Cl)nn3)s2)o1 [CHEMBL1951533]			3.99	Inactive
O=[N+]([O-])c1ccc(-c2nnc(NCc3cn(Cc4ccc(Cl)cc4Cl)nn3)s2)o1 [CHEMBL1951534]			4.70	Inactive
O=[N+]([O-])c1ccc(-c2nnc(NCc3cn(Cc4ccc(Cl)c(Cl)c4)nn3)s2)o1 [CHEMBL1951535]			3.88	Inactive
COc1cc(C)cc2c1C(=O)C=C(c1c(C)c(OC)c3ccc(O)c(OC)c3c1O)C2=O [CHEMBL2071223]	9.82	Active		
COc1c(C)cc(O)c2c(OC)cccc12 [CHEMBL2071224]			4.00	Inactive
COc1cc(C)cc2c1C(=O)C=C(C1=C(C)C(=O)c3ccc(O)c(OC)c3C1=O)C2=O [CHEMBL2071225]	10.28	Active		
COc1cc(C)cc2c1C(=O)C=C(c1c(C)cc3ccc(O)c(OC)c3c1O)C2=O [CHEMBL2071226]	9.74	Active		
COc1c(C)cc2cccc(OC)c2c1O [CHEMBL2071227]			4.35	Inactive

SMILES	pIC50 Value [1, 3]	Outcome [2, 4]	pIC50 Value [1, 5]	Outcome [2, 6]
COc1cccc2cc(C)cc(O)c12 [CHEMBL2071228]			4.30	Inactive
COc1ccc(OC)c2c(O)cc(C)cc12 [CHEMBL2071229]			4.42	Inactive
COc1cccc2cc(C=O)cc(O)c12 [CHEMBL2071232]			4.00	Inactive
COc1c(O)ccc2c1C(=O)C(C)=CC2=O [CHEMBL2071233]			4.03	Inactive
Cn1cc(C=Nc2ccccc2)c2ccccc21 [CHEMBL2071552]	5.49	Active		
Cc1ccc(/N=C/c2cn(C)c3ccccc23)cc1 [CHEMBL2071553]	5.58	Active		
CCOc1ccc(/N=C/c2cn(C)c3ccccc23)cc1 [CHEMBL2071554]	5.50	Active		
Cn1cc(/C=N/c2ccc(Cl)cc2)c2ccccc21 [CHEMBL2071555]	5.67	Active		
Cn1cc(/C=N/C(c2ccccc2)c2ccccc2)c2ccccc21 [CHEMBL2071556]	5.73	Active		
COc1ccc(/N=C/c2cn(C)c3ccccc23)cc1 [CHEMBL2071557]	5.46	Active		
Cc1ccccc1/N=C/c1cn(C)c2ccccc12 [CHEMBL2071558]	5.64	Active		
Cn1cc(/C=N/Cc2ccccc2)c2ccccc21 [CHEMBL2071559]	5.54	Active		
Cn1cc(C2N(c3ccccc3)C(=O)C2(c2ccccc2)c2ccccc2)c2ccccc21 (centres unmarked) [CHEMBL2071560]	5.85	Active		
Cc1ccc(N2C(=O)C(c3ccccc3)(c3ccccc3)C2c2cn(C)c3ccccc23)cc1 (centres unmarked) [CHEMBL2071561]	5.88	Active		
CCOc1ccc(N2C(=O)C(c3ccccc3)(c3ccccc3)C2c2cn(C)c3ccccc23)cc1 (centres unmarked) [CHEMBL2071562]	5.93	Active		
Cn1cc(C2N(c3ccc(Cl)cc3)C(=O)C2(c2ccccc2)c2ccccc2)c2ccccc21 (centres unmarked) [CHEMBL2071563]	5.78	Active		
Cc1ccc(C2(c3ccc(C)cc3)C(=O)N(c3ccccc3)C2c2cn(C)c3ccccc23)cc1 (centres unmarked) [CHEMBL2071564]	5.91	Active		
Cc1ccc(N2C(=O)C(c3ccc(C)cc3)(c3ccc(C)cc3)C2c2cn(C)c3ccccc23)cc1 (centres unmarked) [CHEMBL2071565]	5.89	Active		
CCOc1ccc(N2C(=O)C(c3ccc(C)cc3)(c3ccc(C)cc3)C2c2cn(C)c3ccccc23)cc1 (centres unmarked) [CHEMBL2071566]	5.90	Active		
Cc1ccc(C2(c3ccc(C)cc3)C(=O)N(c3ccc(Cl)cc3)C2c2cn(C)c3ccccc23)cc1 (centres unmarked) [CHEMBL2071567]	5.94	Active		
Cc1ccc(-c2c(-c3ccccc3)nc3ccccn23)cc1 [CHEMBL2151857]	5.40	Active		
COc1ccc(-c2c(-c3ccccc3)nc3ccccn23)cc1 [CHEMBL2151858]			5.14	Active
Oc1ccc(-c2c(-c3ccccc3)nc3ccccn23)cc1 [CHEMBL2151859]			4.40	Inactive
CC(=O)Oc1ccc(-c2c(-c3ccccc3)nc3ccccn23)cc1 [CHEMBL2151860]			4.80	Inactive
CC(C)(C)C(=O)Oc1ccc(-c2c(-c3ccccc3)nc3ccccn23)cc1 [CHEMBL2151861]			5.15	Active
O=[N+]([O-])c1ccc(-c2c(-c3ccccc3)nc3ccccn23)cc1 [CHEMBL2151862]	5.31	Active		
Nc1ccc(-c2c(-c3ccccc3)nc3ccccn23)cc1 [CHEMBL2151863]			4.37	Inactive
